Patent publication US20150196033A1, “PESTICIDAL COMPOSITIONS AND PROCESSES RELATED THERETO” (priority 2012, published 2015)
Read-outs that look alike come from different tables or passages of the source.

Tests used:
Assay type in all cases: in vivo
[1] = test system: Corn Earworm (CEW) (Helicoverpa zea); test: Bioassay on Corn Earworm (CEW), 128-well diet tray assay; conditions: for mortality at 50 µg/cm2 / mortality at 0.5 µg/cm2: Helicoverpa zea, 168 h; for mortality at 50 µg/cm2: read-out: Rating CEW (% Control (or Mortality)); for mortality at 0.5 µg/cm2: 0.5 μg/cm2 on artificial diet, read-out: Rating CEW (% Control (or Mortality)), *Tested at 0.5 μg/cm2
Protocol: (§1) Certain molecules disclosed in this document were tested against BAW and CEW using procedures described in the following examples. In the reporting of the results, the “BAW & CEW Rating Table” was used (See Table Section).
Bioassays on CEW (Helicoverpa zea)
(§2) Trays were covered with a clear self-adhesive cover and held at 25° C., 14:10 light-dark for five to seven days. Percent mortality was recorded for the larvae in each well; activity in the eight wells was then averaged. The results are indicated in the table entitled “Table ABC: Biological Results” (See Table Section).

[2] = test system: Beet Armyworm (BAW) (Spodoptera exigua); test: Bioassay on Beet Armyworm (BAW), 128-well diet tray assay; conditions: for mortality at 50 µg/cm2: Spodoptera exigua, 168 h, read-out: Rating BAW (% Control (or Mortality))
Protocol: as §1
Bioassays on BAW (Spodoptera exigua)
as §2

[3] = test system: Green Peach Aphid (GPA) (Myzus persicae); test: Bioassay on Green Peach Aphid (GPA), foliar spray on cabbage seedlings; conditions: 200 ppm foliar spray on cabbage seedlings, graded after three days, Abbott corrected % control; for mortality at 200 ppm: Myzus persicae, 72 h, read-out: Rating GPA (% Control (or Mortality))
Protocol: Certain molecules disclosed in this document were tested against GPA using procedures described in the following example. In the reporting of the results, the “GPA Rating Table” was used (See Table Section).
Cabbage seedlings grown in 3-inch pots, with 2-3 small (3-5 cm) true leaves, were used as test substrate. The seedlings were infested with 20-50 GPA (wingless adult and nymph stages) one day prior to chemical application. Four pots with individual seedlings were used for each treatment. Test compounds (2 mg) were dissolved in 2 mL of acetone/MeOH (1:1) solvent, forming stock solutions of 1000 ppm test compound. The stock solutions were diluted 5× with 0.025% Tween 20 in H2O to obtain the solution at 200 ppm test compound. A hand-held aspirator-type sprayer was used for spraying a solution to both sides of […] leaves until runoff. Reference plants (solvent check) were sprayed with the diluent only containing 20% by volume of acetone/MeOH (1:1) solvent. Treated plants were held in a holding room for three days at approximately 25° C. and ambient relative humidity (RH) prior to grading. Evaluation was conducted by counting the number of live aphids per plant under a microscope. Percent Control was measured by using Abbott's correction formula (W.S. Abbott, “A Method of Computing the Effectiveness of an Insecticide” J. Econ. Entomol. 18 (1925), pp. 265-267) as follows.
Corrected % Control=100*(X−Y)/X • where • X=No. of live aphids on solvent check plants and • Y=No. of live aphids on treated plants

[4] = 50 μg/cm2 on artificial diet, second instar larvae, five to seven days
[5] = second instar larvae, five to seven days

Molecule | mortality at 50 µg/cm2 [1, 4] [%] | mortality at 50 µg/cm2 [2, 4] [%] | mortality at 200 ppm [3] [%] | also measured
Cc1cccc(C)c1N/C(S)=N/C(=O)Nc1ccc(-c2ncn(-c3ccc(OC(F)(F)F)cc3)n2)cc1 [Molecule A11] | 50 to 100 | 50 to 100 | 0 to 80 | 
CC(=O)/C(C(=O)Nc1ccc(-c2ncn(-c3ccc(OC(F)(F)F)cc3)n2)cc1)=C(/S)Nc1ccccc1C(C)C [Molecule A20, (E)-3-hydroxy-2-((2-isopropylphenyl)carbamothioyl)-N-(4-(1-(4-(trifluoromethoxy)phenyl)-1H-1,2,4-triazol-3-yl)phenyl)but-2-enamide] | 50 to 100 | 50 to 100 | 0 | 
CC(C)C(=O)OCS/C(=N\C(=O)Nc1ccc(-c2ncn(-c3ccc(OC(F)(F)C(F)(F)F)cc3)n2)cc1)Nc1ccccc1C(C)C [Molecule A6, (Z)-((N-(2-Isopropylphenyl)-N′-((4-(1-(4-(pentafluoroethoxy)phenyl)-1H-1,2,4-triazol-3-yl)phenyl)carbamoyl)carbamimidoyl)thio)methyl isobutyrate] | 50 to 100 | 50 to 100 | 0 | 
Cc1ccccc1N/C(S)=C/C(=O)Nc1ccc(-c2ncn(-c3ccc(OC(F)(F)F)cc3)n2)cc1 [Molecule A22, 3-thioxo-3-(o-tolylamino)-N-(4-(1-(4-(trifluoromethoxy)phenyl)-1H-1,2,4-triazol-3-yl)phenyl)propanamide] | 50 to 100 | 50 to 100 | 0 | 
COc1cc(C)c(N/C(=N/C(=O)Nc2ccc(-c3ncn(-c4ccc(OC(F)(F)F)cc4)n3)cc2)SCOC(=O)C(C)C)c(C)c1 [Molecule A7, (E)-(N′-(2,6-Dimethyl-4-methoxyphenyl)-N-(4-(1-(4-(trifluoromethyoxy)phenyl)-1H-1,2,4-triazol-3-yl)phenylcarbamoyl)carbamimidoylthio)methyl isobutyrate] | 50 to 100 | 50 to 100 | 0 to 80 | 
COc1ccc(N/C(=N/C(=O)Nc2ccc(-c3ncn(-c4ccc(C(F)(F)F)cc4)n3)cc2)SC)c(C)c1 [Molecule A2, (Z)-Methyl N-(4-methoxy-2-methylphenyl)-N′-((4-(1-(4-(trifluoromethyl)phenyl)-1H-1,2,4-triazol-3-yl)phenyl)carbamoyl)carbamimidothioate] | 50 to 100 | 50 to 100 | 0 | 
(E)-((N′-(4-Methoxy-2,6-dimethylphenyl)-N-((4-(1-(4-(trifluoromethyl)phenyl)-1H-1,2,4-triazol-3-yl)phenyl)carbamoyl) carbamimidoyl)thio)methyl 2-(((benzyloxy)carbonyl)amino)acetate [Molecule A9] |  |  |  | Rating CEW (% Control (or Mortality)) [1, 4]: A (50-100); Rating BAW (% Control (or Mortality)) [2, 4]: A (50-100); Rating GPA (% Control (or Mortality)) [3]: B (More than 0-Less than 80)
Cc1cccc(C)c1N/C(O)=C/C(=O)Nc1ccc(-c2ncn(-c3ccc(OC(F)(F)F)cc3)n2)cc1 [Molecule A32, (Z)-3-(2,6-dimethylphenylamino)-3-hydroxy-I-(4-(1-(4-(trifluoromethoxy)phenyl)-1H-1,2,4-triazol-3-yl)phenyl)acrylamide] | 50 to 100 | 50 to 100 | 0 | 
COc1ccc(N/C(=N/C(=O)Nc2ccc(-c3ncn(-c4ccc(C(F)(F)F)cc4)n3)cc2)SCOC(=O)C(C)C)c(C)c1 [Molecule A1, (E)-((N′-(4-methoxy-2-methylphenyl)-N-((4-(1-(4-(trifluoromethyl)phenyl)-1H-1,2,4-triazol-3-yl)phenyl)carbamoyl)carbamimidoyl)thio) methyl isobutyrate] | 50 to 100 | 50 to 100 | 0 | 
COc1ccc(N/C(O)=C/C(=O)Nc2ccc(-c3ncn(-c4ccc(OC(F)(F)F)cc4)n3)cc2)c(C)c1 [Molecule A33, (Z)-3-hydroxy-3-(4-methoxy-2-methylphenylamino)-N-(4-(1-(4-(trifluoromethoxy)phenyl)-1H-1,2,4-triazol-3-yl)phenyl)acrylamide] | 50 to 100 | 50 to 100 | 0 to 80 | 
Cc1cccc(C)c1N/C(S)=N/C(=O)Nc1ccc(-c2ncn(-c3ccc(C(F)(F)F)cc3)n2)cc1 [Molecule A12] | 50 to 100 | 50 to 100 | 0 | 
COc1ccc(NC(=O)NC(=O)Nc2ccc(-c3ncn(-c4ccc(C(F)(F)F)cc4)n3)cc2)c(C)c1 [Molecule A53] |  |  |  | Rating CEW (% Control (or Mortality)) [1, 4]: D (No activity noticed in this bioassay); Rating BAW (% Control (or Mortality)) [2, 4]: D (No activity noticed in this bioassay)
Cc1ccc(F)c(N2C(=O)CS/C2=N\C(=O)Nc2ccc(-c3ncn(-c4ccc(OC(F)(F)F)cc4)n3)cc2)c1 [Molecule A94] |  | 50 to 100 |  | mortality at 0.5 µg/cm2 [1, 5]: 50 to 100%
CC(C)c1cccc(N2C(=O)CS/C2=N\C(=O)Nc2ccc(-c3ncn(-c4ccc(OC(F)(F)F)cc4)n3)cc2)c1 [Molecule A120] | 0 | 0 |  | 
CC(C)C(=O)OCS/C(=N/C(=O)Nc1ccc(-c2ncn(-c3ccc(OC(F)(F)F)cc3)n2)cc1)Nc1c(F)cccc1F [Molecule A61] | 50 to 100 | 50 to 100 |  | 
Cc1cc(C)cc(N2C(=O)CS/C2=N\C(=O)Nc2ccc(-c3nnc(-c4ccc(OC(F)(F)F)cc4)o3)cc2)c1 [Molecule A104] |  | 0 |  | mortality at 0.5 µg/cm2 [1, 5]: 50 to 100%
Cc1cc(C)c(N/C(=N\C(=O)Nc2ccc(-c3ncn(-c4ccc(OC(F)(F)F)cc4)n3)cc2)SCOC(=O)C(C)C)c(C)c1 [Molecule A59] | 50 to 100 | 50 to 100 |  | 
COc1ccc(N/C(S)=N/C(=O)Nc2ccc(-c3ncn(-c4ccc(OC(F)(F)F)cc4)n3)cc2)c(C)c1 [Molecule A98] |  | 50 to 100 |  | mortality at 0.5 µg/cm2 [1, 5]: 50 to 100%
CC(C)c1cccc(N/C(S)=N/C(=O)Nc2ccc(-c3ncn(-c4ccc(OC(F)(F)F)cc4)n3)cc2)c1 [Molecule A118] | 0 | 0 |  | 
CC(C)c1ccccc1N/C(S)=N/C(=O)Nc1ccc(-c2ncn(-c3ccc(C(F)(F)C(F)(F)C(F)(F)F)cc3)n2)cc1 [Molecule A113] |  |  |  | mortality at 50 µg/cm2 [1]: 0%; mortality at 50 µg/cm2 [2]: 50 to 100%
N#C/C(C(=O)Nc1ccc(-c2ncn(-c3ccc(OC(F)(F)F)cc3)n2)cc1)=C(/S)Nc1c(F)cccc1F [Molecule A30, (Z)-2-Cyano-3-((2,6-difluorophenyl)amino)-3-mercapto-N-(4-(1-(4-(trifluoromethoxy)phenyl)-1H-1,2,4-triazol-3-yl)phenyl)acrylamide] | 0 | 0 |  | 
Cc1ccc(N/C(S)=N/C(=O)Nc2ccc(-c3ncn(-c4ccc(OC(F)(F)F)cc4)n3)cc2)c(C)c1 [Molecule A68] |  | 50 to 100 |  | mortality at 0.5 µg/cm2 [1, 5]: 50 to 100%
